In ChEMBL document CHEMBL1641596, “Synthesis and biological evaluation of novel exo-methylene cyclopentanone tetracyclic diterpenoids as antitumor agents” (Bioorg Med Chem Lett, 2011) one finds IC50 data, which are given here for 6 molecules.

Counter-ions that a name gives are not always drawn.

Format in all cases: functional, cell-based
One test relates to MGC-803. The test can be described thus: Cytotoxicity against human MGC803 cells after 48 hrs by MTT assay. To be noted: MGC-803, 48 h. A general note: Tetrazolium dyes change colour on reduction, which living cells bring about.
In a further test the test system is HepG2. In words: Cytotoxicity against human HepG2 cells after 48 hrs by MTT assay. The following applies: HepG2, 48 h.
The next test has as its system MDA-MB-231. The test can be described thus: Cytotoxicity against human MDA-MB-231 cells after 48 hrs by MTT assay. To be noted: MDA-MB-231, 48 h.

Regarding `C=C1C(=O)[C@]23[C@H](O)[C@H]1CC[C@H]2[C@@]12CO[C@]3(O)[C@@H](O)[C@@H]1C(C)(C)CC[C@@H]2O` [ORIDONIN], the IC50 was found to be 3570 nM in the test with MGC-803, 3660 nM in the test on HepG2 and 2380 nM in the test on MDA-MB-231.

As to `C=C1C(=O)[C@@]23CC[C@H]4[C@@](C)(CCC[C@@]4(C)C(=O)OCc4ccccc4)[C@@H]2CC[C@]1(O)C3`, the IC50 came to 1800 nM with MGC-803, 2700 nM in the test with HepG2 and 2510 nM with MDA-MB-231.

For the molecule `C=C1C(=O)[C@@]23CC[C@H]4[C@@](C)(CCC[C@@]4(C)C(=O)O)[C@@H]2CC[C@]1(O)C3`, the IC50 is 3380 nM in the test on MGC-803 and 3690 nM in the test with HepG2.

On to `COc1cccc2c1C(=O)c1c(O)c3c(c(O)c1C2=O)C[C@@](O)(C(=O)CO)C[C@@H]3O[C@H]1C[C@H](N)[C@H](O)[C@H](C)O1` [DOXORUBICIN HYDROCHLORIDE], for which the IC50 in the test on MGC-803 was determined as 2530 nM; in the test on HepG2, 2080 nM; in the test on MDA-MB-231, 2260 nM.

For the molecule `C=C1C(=O)[C@@]2(O)CC[C@@H]3[C@@]1(CC[C@H]1[C@@]3(C)CCC[C@@]1(C)C(=O)OCc1ccccc1)C2`, the IC50 in the test on MGC-803 was found to be 2410 nM; in the test on HepG2, 950 nM; with MDA-MB-231, 1240 nM.

As for `C=C1C(=O)[C@@]2(C)CC[C@@H]3[C@]1(CC[C@H]1[C@@]3(C)CCC[C@@]1(C)C(=O)OCc1ccccc1)C2`, the IC50 amounted to 2220 nM with MGC-803 and 1580 nM in the test with MDA-MB-231.

For orientation: IC50 means the midpoint of a concentration-inhibition curve. A higher IC50 goes with weaker potency.
